Experimental data: publication PMC10135756 (2023)

Key:
[1] = tested on: CSS.1-42 (DNA, aptamer) GACGACGCCCGCATGTTCCATGGATAGTCTTGACTAGTCGTC; assay: SGI fluorescence; details: 100 mM NaCl, 10 mM MgCl2; 20 mM HEPES pH 7.5; 0.1× SGI, 1 μM aptamer
[2] = tested on: DNA1 (DNA, other) ACGACACGGAGGCTTAGTTTGCTAAATGGTCATGTCGT; assay: SGI fluorescence; details: 500 mM NaCl, 20 mM MgCl2; 50 mM Tris pH 7.6; 0.02× SGI, 200 nM DNA1
[3] = tested on: CSS.1-42 (DNA, aptamer) GACGACGCCCGCATGTTCCATGGATAGTCTTGACTAGTCGTC; assay: SGI fluorescence increase, microplate; details: 100 mM NaCl, 10 mM MgCl2; 20 mM HEPES pH 7.5; 0.1× SGI, 1 μM aptamer; with and without 0.01% Triton X-100; up to 6 μM
[4] = tested on: Ade Apt (adenosine aptamer, WT) (DNA, aptamer) ACCTGGGGGAGTATTGCGGAGGAAGGT; assay: ThT fluorescence; details: 50 mM NaCl, 4 mM MgCl2; 10 mM HEPES pH 7.6; 2 μM ThT, 100 nM aptamer
[5] = tested on: Ade Apt (adenosine aptamer, WT) (DNA, aptamer) ACCTGGGGGAGTATTGCGGAGGAAGGT; assay: ThT displacement fluorescence, quartz cuvette; details: 50 mM NaCl, 4 mM MgCl2, 10 mM HEPES pH 7.6, 20 °C
[6] = tested on: Ade Apt M2 (DNA, aptamer) ACCTGGGGTAGTATTGCGGAGTAAGGT; assay: ThT displacement fluorescence, quartz cuvette; details: 50 mM NaCl, 4 mM MgCl2; 10 mM HEPES pH 7.6, 20 °C; 2 μM ThT; up to 500 μM

With `CCCN(CCCN(C)C)c1cc(C=C2Sc3ccccc3N2C)c2ccccc2[n+]1-c1ccccc1` the binding [1] was “weak” and the binding [2] was “yes”.
With `C[C@]12CCC(=O)C=C1CC[C@@H]1[C@@H]2[C@@H](O)C[C@@]2(C)[C@H]1CC[C@]2(O)C(=O)CO` the binding [3] was “yes”.
In the case of `Cc1ccc2c(c1)sc(-c1ccc(N(C)C)cc1)[n+]2C`, the binding [4] is reported as “yes”.
`Nc1nc2c(ncn2[C@@H]2O[C@H](CO)[C@@H](O)[C@H]2O)c(=O)[nH]1` was tested, and the binding ([5]; 2 μM ThT, up to 500 μM) was “no”.
With `Nc1ncnc2c1ncn2[C@@H]1O[C@H](CO)[C@@H](O)[C@H]1O` the Kd ([5]; 2 μM ThT displaced, 100 nM aptamer, 10 min equilibration, apparent) was 16.6 ± 8.4 µM and the binding [6] was “no”.
